Assays:
Format in all cases: cell-based, Candida albicans
[1] = system: planktonic C. albicans cells; assay: kinetic metabolic assay (KMA, alamarBlue) of planktonic cells after 1 h AmB treatment
Method: Planktonic cultures. Cultures were grown aerobically in 250-ml Erlenmeyer flasks containing 100 ml growth medium. The flasks were placed in a shaker incubator at 37° C. and 160 rpm for the desired period of growth. C. albicans grew as budding yeast under these conditions. Exponential phase cells were harvested after a 5-h growth period and stationary-phase cells at 96 h.
AmB treatment. AmB was from Biosource International Inc. (Fungizone with 0.00205% sodium deoxycholate solubilizing agent). A standard broth dilution method was used to assess the AmB MlC of CA-1, with ATCC 24433 used as a reference strain (32). AmB treatment of planktonic cells and shear-removed biofilm was preformed in 1.5-ml centrifuge tubes. The tubes contained a total working volume of 450 μl. AmB dissolved in 200 μl of 0.1 M PBS (pH 7.0), and cells resuspended in 250 μl of PBS adjusted to an optical density of 0.05 (A660) were added to the 1.5-ml tube. After more than 10 preliminary experiments, the time between recovery of the shear-removed biofilm in the petri dish and exposure to AmB was reduced to approximately 5 min. The positive controls had no AmB, and the negative controls had no cells. For AmB treatment of the basal blastospore population, each sample consisted of a 0.5-cm long section of tubing cut from the TF. Each tubing sample was positioned in the 96-well plate (Corning Inc.; Costar 3370) such that its outer wall snugly fit along the wall of the well in the 96-well plate. This enabled recording of absorbance data for the metabolic indicator in real time without perturbing the well contents. The 0.5-cm tubing samples were randomly placed in the 96-well plate in order to randomize the distribution between treated samples and untreated controls. Solution (225 μl) containing AmB in 0.1 M PBS was added to wells to completely submerge the 0.5-cm tubing during the AmB treatment phase. Untreated samples were the positive controls. Three independent TF experiments were run, generating 24 samples per AmB concentration and 61 untreated controls for the basal blastospores. Sterile tubing was used as a negative control. In every experiment, a minimum of four negative controls were used. The AmB treatment period was 1 h across all cell populations. During AmB exposure, the 1.5-m1 tubes (containing either the planktonic or shear-removed populations) and 96 -well plates (containing the basal blastospores) were placed in a shaker incubator at 37° C. and 150 rpm. […]
Kinetic curves. Kinetic data of the reduction of metabolic indicators and turbidimetric changes were recorded for both AmB treated and untreated samples. […] The kinetic assay in the 96 well format was run for 24 h at 37° C. with continuous shaking in a Synergy-HT plate reader (Biotek Inc.). […]

[2] = system: planktonic C. albicans cells; assay: CFU assay of planktonic cells after AmB treatment; settings: exponential phase planktonic cells
Method: CFU assay. CFU were estimated for both AmB treated and untreated planktonic sample. 100 μl planktonic C. albicans cells in PBS were serially diluted in 2 ml cuvettes (catalog no. BTCUV, Biotrace Inc.). The serial dilution was 10-fold across each cuvette. The required number of serial dilutions per sample were judged based on trial and error. A volume of 100 μl from each serially diluted cuvette was spread as a separate lane on an agar plate. […] Plates were incubated at 37° C. for 24 hours. CFU were estimated from dilutions whose numbers fell in the range of 10 to 100 colonies per lane. The appropriate dilution factor was multiplied to estimate the final viable cell concentration for every sample.
AmB treatment. AmB was from Biosource International Inc. (Fungizone with 0.00205% sodium deoxycholate solubilizing agent). A standard broth dilution method was used to assess the AmB MlC of CA-1, with ATCC 24433 used as a reference strain (32). AmB treatment of planktonic cells and shear-removed biofilm was preformed in 1.5-ml centrifuge tubes. The tubes contained a total working volume of 450 μl. […] This enabled recording of absorbance data for the metabolic indicator in real time without perturbing the well contents. […]
(ii) Calculation of percent viability. Viability in terms of CFU was calculated by using the kinetic parameters estimated for each sample and the corresponding calibrations. […]

[3] = system: C. albicans biofilm basal blastospores; assay: KMA for in situ biofilm susceptibility testing (alamarBlue, modified medium, t-threshold)
Method: Biofilm cultures. Biofilms were grown in a tubular flow cell (TF). Silicone tubing (Cole-Panmer; catalog no. EW-95802-08) with an inner diameter of 4.78 mm, an outer diameter of 6.35 mm, a wall of 0.79 mm, and a length of 60 cm constituted the biofilm-growing region of the TF. The source of growth medium for the TF was a 2-liter Erlenineyer flask. A bubble trap was placed between the Erlenmeyer flask and the TF to prevent passage of air bubbles during biofilm growth. Flow rates of 1.17 ml/min (shear rate, 109.5 s^−1) were maintained by a peristaltic pump coupled at the effluent end of the TF. The residence time for the volume of liquid contained in the tubular reactor portion of the flow system (20-cm length of tubing) was 3 min. This condition ensured that the contribution to the cell population in the TF from cells in the planktonic mode of growth (doubling time, approximately 80 min) was negligible. After sterilization by autoclaving, the entire setup was placed horizontally on a grilled shelf in an incubator at 37° C. The TF was filled with growth medium before being inoculated with cells. The inoculum was prepared from a 24-h planktonic culture at a concentration of 10^8 cells/ml in 0.1 M phosphate-buffered saline (PBS, pH 7) buffer. It was fed into the TF from the effluent end by reversing the direction of flow. Flow was then discontinued for 1 h. After the 1 -h inoculation period, flow was resumed for 36 h. At the end of this culture period, the section of tubing in which the biofilm grew was clamped at both ends and removed by cutting the tubing with a sterile blade. The liquid column was drained into a petri dish by moving the tubing to a vertical position and releasing the clamps. The tubing was then rinsed with PBS buffer equivalent to one tube volume. The fraction of biofilm collected in the petri dish by this procedure is referred to as the shear-removed biofilm. […]
AmB treatment. […] This enabled recording of absorbance data for the metabolic indicator in real time without perturbing the well contents. […]

Compound: C[C@@H]1[C@H](O)[C@@H](C)/C=C/C=C/C=C/C=C/C=C/C=C/C=C/[C@H](O[C@@H]2O[C@H](C)[C@@H](O)[C@H](N)[C@@H]2O)C[C@@H]2O[C@](O)(C[C@@H](O)C[C@@H](O)[C@H](O)CC[C@@H](O)C[C@@H](O)CC(=O)O[C@H]1C)C[C@H](O)[C@H]2C(=O)O [AmB, amphotericin B]
- AmB concentration beyond which complete killing is achieved ([1]; exponential phase planktonic cells, KMA, 1 h AmB treatment): > 1.77 µg/mL
- AmB concentration up to which viability is detected ([1]; modified medium, exponential-phase cells, alamarBlue, t-threshold (FIG. 5)): 1.77 µg/mL
- AmB concentration up to which cells survive ([1]; stationary phase planktonic cells, alamarBlue, t-threshold, 1 h AmB treatment (FIG. 6)): 3.55 µg/mL
- AmB concentration up to which viability is detected (detection limit) ([1]; unmodified medium, exponential-phase cells, alamarBlue, t-threshold (FIG. 5)): 0.88 µg/mL
- AmB concentration beyond which complete killing was observed [2]: > 1.77 µg/mL
- activity of basal blastospores relative to other populations ([3]; AmB concentrations greater than or equal to 3.7 μg/ml, versus shear removed biofilm, stationary and exponential phase planktonic cells): clearly more active than the other three populations
- AmB concentration up to which metabolic activity was exhibited ([3]; basal blastospore subpopulation in situ, highest tested concentration, 1 h AmB treatment): 28.26 µg/mL
- loss of metabolic activity of basal blastospores relative to other samples ([3]; lower AmB concentrations (<1.77 μg/ml)): greater loss of metabolic activity than the other samples

Source: patent US20070238146A1, “Kinetic metabolic assay for antifungal susceptibility testing” (priority 2006, published 2007)
